By IC50 is commonly meant the concentration at which inhibition is half-maximal.

One data set relates to 293T. The data set is classed as cell-based, human. The note with it: 48 h. The source says:
(§1) Since the antitumor activity of natural galaxamide is good, we are interested in the antitumor potential of the obtained new analogs. To examine the anticancer activities of galaxamide and its analogs, two different human cancer cell lines, human non-small-cell lung cancer cells (A549) and human chronic myelogenous leukemia (K562), and one normal human cell line, human immortal embryonic kidney cells (293T), were selected for the in vitro cell models. […] The synthetic galaxamide (Gala01) was also tested as the standard. […] It was also found […] the best selectivity and highest safety and is thus worthy of further development for anticancer drugs for K562. A549, K562, and 293T cells were purchased from the Cell Resource Center of the Institute of Basic Medicine, Chinese Academy of Medical Sciences. Both A549 cells and K562 cells were cultured in RPMI (full name: Roswell Park Memorial Institute) 1640 medium containing 10% FBS (full name: fetal bovine serum, product number: C04001-500, Vivacell, Shanghai, China) and 1% p/s (full name: penicillin-streptomycin, product number: 15140122, Gbico, Waltham, MA, USA) for culture. The 293T cells were all cultured in DMEM (full name: Dulbecco's Modified Eagle Medium; cat. no.: C3113-0500, Vivacell, ShanghaiChina; containing 10% FBS and 1% p/s) for cultivation. […] Multiple types of cells were seeded into 96-well plates and treated with different concentrations of […]26 for 48 h after they returned to normal. Then, the relative activity of the cells was detected according to the instructions of the CCK-8 kit (item number: MA0218, Meilunbio, Dalian, China) and analyzed and calculated using GraphPad Prism 8.0.1 software.

The next data set deals with K562. In kind it is cell-based, human. On the procedure:
To examine the anticancer activities of galaxamide and its analogs, two different human cancer cell lines, human non-small-cell lung cancer cells (A549) and human chronic myelogenous leukemia (K562), and one normal human cell line, human immortal embryonic kidney cells (293T), were selected for the in vitro cell models. […] The synthetic galaxamide (Gala01) was also tested as the standard. […] A549, K562, and 293T cells were purchased from the Cell Resource Center of the Institute of Basic Medicine, Chinese Academy of Medical Sciences. Both A549 cells and K562 cells were cultured in RPMI (full name: Roswell Park Memorial Institute) 1640 medium containing 10% FBS (full name: fetal bovine serum, product number: C04001-500, Vivacell, Shanghai, China) and 1% p/s (full name: penicillin-streptomycin, product number: 15140122, Gbico, Waltham, MA, USA) for culture. The 293T cells were all cultured in DMEM (full name: Dulbecco's Modified Eagle Medium; cat. no.: C3113-0500, Vivacell, ShanghaiChina; containing 10% FBS and 1% p/s) for cultivation. […] Multiple types of cells were seeded into 96-well plates and treated with different concentrations of […]26 for 48 h after they returned to normal. Then, the relative activity of the cells was detected according to the instructions of the CCK-8 kit (item number: MA0218, Meilunbio, Dalian, China) and analyzed and calculated using GraphPad Prism 8.0.1 software.

The next data set has as its system A549. In kind it is cell-based, human.
Excerpt: as §1

For data set [1] the following is noted: amide bond; 15-membered ring; PyBOP/DMAP; MeCN; 4.3 mM.
The mark [2] stands for this setting: human non-small-cell lung cancer cells A549, 48 h, CCK-8, unit given in the text, not in Table 2, read-out: IC50 A549.
Where [3] appears, read: human chronic myelogenous leukemia K562, 48 h, CCK-8, unit given in the text, not in Table 2, read-out: IC50 K562.

Where “and” joins values, the source holds several entries; their conditions need not be identical. Equal values may be shown once. Read-outs that look alike come from different tables or passages of the source. Where a SMILES comes first, the peptide text is derived from it. [ ]: non-standard residue; d: D form. dChg = N[C@@H](C(=O)O)C1CCCCC1; dPhg = N[C@@H](C(=O)O)c1ccccc1; NMeL = CN[C@@H](CC(C)C)C(=O)O; dNMeL = CN[C@H](CC(C)C)C(=O)O Bounds are passed on as bounds.

Regarding `CSCC[C@H]1NC(=O)[C@H](CC(C)C)NC(=O)[C@H](CC(C)C)N(C)C(=O)[C@H](CC(C)C)NC(=O)[C@H](CC(C)C)N(C)C1=O` [Gala22, Cyclo(Me-L-Leu-L-Leu-D-Met-Me-L-Leu-L-Leu)] (cyclo(L[NMeL]L[dM][NMeL])), the IC50 was determined as 12.9 µM in the data set with 293T and 8.5 µM in the data set with K562 (48 h). For the compound `CC(C)C[C@@H]1NC(=O)[C@@H](CC(C)C)NC(=O)[C@H](CC(C)C)N(C)C(=O)[C@@H](CC(C)C)NC(=O)[C@H](CC(C)C)N(C)C1=O` [Gala05, Cyclo(Me-L-Leu-D-Leu-L-Leu-Me-L-Leu-D-Leu)] (cyclo(L[NMeL][dL][NMeL][dL])), the IC50 in the data set with A549 (setting [2]) was > 20 µM; in the data set on K562 (setting [3]) it was 10.2 µM. The corresponding values for `CC(C)C[C@H]1NC(=O)[C@H](CC(C)C)N(C)C(=O)[C@@H](CC(C)C)NC(=O)[C@H](CC(C)C)N(C)C(=O)[C@@H](CC(C)C)NC1=O` [Gala06, Cyclo(Me-L-Leu-D-Leu-D-Leu-Me-L-Leu-D-Leu)] (cyclo([NMeL][dL][NMeL][dL][dL])) are > 20 µM and 28.8 µM. In the case of `CC(C)C[C@@H]1NC(=O)[C@H](CC(C)C)N(C)C(=O)[C@H](CC(C)C)NC(=O)[C@H](CC(C)C)N(C)C(=O)[C@@H](Cc2ccc(Br)cc2)NC1=O` [Gala18, Cyclo(Me-L-Leu-L-Leu-4-Bro-D-Phe-Me-L-Leu-L-Leu)], the IC50 came to 14.1 µM in the data set with 293T and 24.2 µM in the data set on K562 (48 h). For `Cc1ccccc1C[C@H]1NC(=O)[C@H](CC(C)C)NC(=O)[C@H](CC(C)C)N(C)C(=O)[C@H](CC(C)C)NC(=O)[C@H](CC(C)C)N(C)C1=O` [Gala16, Cyclo(Me-L-Leu-L-Leu-2-Me-D-Phe-Me-L-Leu-L-Leu)], the figures for the IC50 in the data set with A549 (48 h) and in the data set with K562 (48 h) were > 20 µM and > 80 µM, respectively. `CC(C)C[C@@H]1NC(=O)[C@H](CC(C)C)N(C)C(=O)[C@H](CC(C)C)NC(=O)[C@H](CC(C)C)N(C)C(=O)[C@@H](C)NC1=O` [Gala11, Cyclo(Me-L-Leu-L-Leu-D-Ala-Me-L-Leu-L-Leu)] (cyclo([NMeL]L[dA][NMeL]L)): the IC50 in the data set with 293T was found to be 13.3 µM; with K562 (48 h), 33.8 µM. On to `CC(C)C[C@@H]1NC(=O)[C@H](CC(C)C)N(C)C(=O)[C@H](CC(C)C)NC(=O)[C@H](CC(C)C)N(C)C(=O)[C@@H](CC(C)C)NC1=O` [Gala02, Cyclo(Me-L-Leu-L-Leu-D-Leu-Me-L-Leu-L-Leu)] (cyclo(L[NMeL]L[dL][NMeL])), for which the IC50 is > 20 µM in the data set on A549 (setting [2]) and 8.6 µM with K562 (setting [3]). For the compound `CC(C)C[C@@H]1NC(=O)[C@H](CC(C)C)N(C)C(=O)[C@H](CC(C)C)NC(=O)[C@H](CC(C)C)N(C)C(=O)[C@@H](C(C)C)NC1=O` [Gala21, Cyclo(Me-L-Leu-L-Leu-D-Val-Me-L-Leu-L-Leu)] (cyclo([NMeL]L[dV][NMeL]L)), the IC50 is > 20 µM in the data set on A549 (48 h) and 49.3 µM with K562 (48 h).

In the case of `CC(C)C[C@@H]1NC(=O)[C@H](CC(C)C)N(C)C(=O)[C@H](CC(C)C)NC(=O)[C@H](CC(C)C)N(C)C(=O)[C@@H](Cc2ccc(Cl)cc2)NC1=O` [Gala17, Cyclo(Me-L-Leu-L-Leu-4-Chl-D-Phe-Me-L-Leu-L-Leu)], the IC50 in the data set on A549 (48 h) was > 20 µM; in the data set on K562 (48 h), 77.7 µM. In data set [1], “Cyclo(Me-D-Leu-L-Leu-D-Leu-Me-D-Leu-L-Leu)” returned a ring closure, isolated yield of 45%.

“Cyclo(Me-L-Leu-L-Leu-D-Phe-Me-L-Leu-L-Leu)” displayed a ring closure, isolated yield in data set [1] of 51%. Regarding `Cc1cccc(C[C@H]2NC(=O)[C@H](CC(C)C)NC(=O)[C@H](CC(C)C)N(C)C(=O)[C@H](CC(C)C)NC(=O)[C@H](CC(C)C)N(C)C2=O)c1` [Gala23, Cyclo(Me-L-Leu-L-Leu-3-Me-D-Phe-Me-L-Leu-L-Leu)], the IC50 with A549 (48 h) is > 20 µM; with K562 (48 h) it was 6.9 µM. `CC(C)C[C@@H]1NC(=O)[C@H](CC(C)C)N(C)C(=O)[C@H](CC(C)C)NC(=O)[C@H](CC(C)C)N(C)C(=O)CNC1=O` [Gala10, Cyclo(Me-L-Leu-L-Leu-Gly-Me-L-Leu-L-Leu)] (cyclo([NMeL]LG[NMeL]L)): the IC50 in the data set on A549 (48 h) is > 20 µM; in the data set on K562 (48 h), 27.2 µM. Regarding “Cyclo(Me-L-Leu-L-Leu-3-Me-D-Phe-Me-L-Leu-L-Leu)”, the ring closure, isolated yield in data set [1] is 53% and 50%. On the same count and under the same terms, the result for “Cyclo(Me-L-Leu-L-Leu-D-Leu-Me-L-Leu-L-Leu)” reads 45%; that for “Cyclo(Me-D-Leu-D-Leu-D-Leu-Me-D-Leu-D-Leu)”, 48%; that for “Cyclo(Me-L-Leu-L-Leu-D-phenyl-Gly-Me-L-Leu-L-Leu)”, 51%. On the same count and under the same terms, the result for “Cyclo(Me-L-Leu-L-Leu-D-Met-Me-L-Leu-L-Leu)” reads 52%; that for “Cyclo(Me-L-Leu-L-Leu-D-Val-Me-L-Leu-L-Leu)”, 50%. Turning to `CC(C)C[C@@H]1NC(=O)[C@H](CC(C)C)N(C)C(=O)[C@H](CC(C)C)NC(=O)[C@H](CC(C)C)N(C)C(=O)[C@@H](C2CCCCC2)NC1=O` [Gala19, Cyclo(Me-L-Leu-L-Leu-D-cyclohexyl-Gly-Me-L-Leu-L-Leu)] (cyclo(L[NMeL]L[dChg][NMeL])), the IC50 was > 20 µM with A549 (48 h) and 75.2 µM in the data set on K562 (48 h). Regarding `CC(C)C[C@@H]1NC(=O)[C@@H](CC(C)C)N(C)C(=O)[C@H](CC(C)C)NC(=O)[C@@H](CC(C)C)N(C)C(=O)[C@H](CC(C)C)NC1=O` [Gala03, Cyclo(Me-D-Leu-L-Leu-L-Leu-Me-D-Leu-L-Leu)] (cyclo(LL[dNMeL]L[dNMeL])), the IC50 in the data set with A549 (setting [2]) was > 20 µM; in the data set on K562 (setting [3]) it was > 80 µM. In data set [1], “Cyclo(Me-L-Leu-L-Leu-4-Chl-D-Phe-Me-L-Leu-L-Leu)” showed a ring closure, isolated yield of 55%. `CC(C)C[C@@H]1NC(=O)[C@H](CC(C)C)N(C)C(=O)[C@H](CC(C)C)NC(=O)[C@H](CC(C)C)N(C)C(=O)[C@@H](c2ccccc2)NC1=O` [Gala20, Cyclo(Me-L-Leu-L-Leu-D-phenyl-Gly-Me-L-Leu-L-Leu)] (cyclo(L[NMeL]L[dPhg][NMeL])): the IC50 is > 20 µM in the data set on A549 (48 h) and > 80 µM with K562 (48 h). In data set [1], “Cyclo(Me-L-Leu-L-Leu-Gly-Me-L-Leu-L-Leu)” gave a ring closure, isolated yield of 51%.

The compound “Cyclo(Me-L-Leu-L-Leu-O-Me-D-Ser-Me-L-Leu-L-Leu)” showed a ring closure, isolated yield in data set [1] of 52%. For `COc1ccc(C[C@H]2NC(=O)[C@H](CC(C)C)NC(=O)[C@H](CC(C)C)N(C)C(=O)[C@H](CC(C)C)NC(=O)[C@H](CC(C)C)N(C)C2=O)cc1` [Gala13, Cyclo(Me-L-Leu-L-Leu-O-Tyr-Me-L-Leu-L-Leu)] (cyclo(L[NMeL]L[dY](Me)[NMeL])), the IC50 was > 20 µM in the data set with A549 (48 h) and > 80 µM in the data set on K562 (48 h).

Take `CC(C)C[C@@H]1NC(=O)[C@H](CC(C)C)N(C)C(=O)[C@H](CC(C)C)NC(=O)[C@H](CC(C)C)N(C)C(=O)[C@@H](Cc2cccc(F)c2)NC1=O` [Gala15, Cyclo(Me-L-Leu-L-Leu-3-Flu-D-Phe-Me-L-Leu-L-Leu)]: the IC50 is > 20 µM with A549 (48 h) and 13 µM with K562 (48 h).

With `CC(C)C[C@@H]1NC(=O)[C@@H](CC(C)C)NC(=O)[C@@H](CC(C)C)N(C)C(=O)[C@@H](CC(C)C)NC(=O)[C@@H](CC(C)C)N(C)C1=O` [Gala07, Cyclo(Me-D-Leu-D-Leu-L-Leu-Me-D-Leu-D-Leu)] (cyclo(L[dNMeL][dL][dNMeL][dL])), the IC50 with A549 (setting [2]) was > 20 µM; in the data set with K562 (setting [3]) it was > 80 µM.

`CC(C)C[C@@H]1NC(=O)[C@H](CC(C)C)N(C)C(=O)[C@H](CC(C)C)NC(=O)[C@H](CC(C)C)N(C)C(=O)[C@@H](Cc2ccccc2)NC1=O` [Gala09, Cyclo(Me-L-Leu-L-Leu-D-Phe-Me-L-Leu-L-Leu)]: the results for the IC50 with A549 (48 h) and in the data set with K562 (48 h) were > 20 µM and 14.9 µM, respectively. Consider “Cyclo(Me-L-Leu-L-Leu-2-Me-D-Phe-Me-L-Leu-L-Leu)”, for which the ring closure, isolated yield in data set [1] stood at 53%. The same measure, in the same setting: then “Cyclo(Me-L-Leu-L-Leu-D-Pro-Me-L-Leu-L-Leu)”, with 51%. On the same count and under the same terms, then “Cyclo(Me-L-Leu-L-Leu-3-Flu-D-Phe-Me-L-Leu-L-Leu)”, with 53%; and “Cyclo(Me-L-Leu-L-Leu-O-Tyr-Me-L-Leu-L-Leu)”, with 52%.

The values are drawn from PMC12155888, “Design, Synthesis, and Antitumor Biological Evaluation of Galaxamide and Its Analogs” (Molecules, 2025).
